# Like-named read-outs stand apart in the source and are kept apart here.
# Experiments:
# HCV replicon 2B = assay: Cell-based HCV Replicon Assay A, replicon 2B
# Outline: (§1)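 2000 cells/well; 10 serial dilutions, top concentration 333.3 nM to 1.667 nM; 0.5% DMSO, 5% FBS; 3 days; lysis; multiplex TaqMan RT-PCR (NS5B/Neo plus cyclophilin), RNA from linear Ct standard curves.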
# HCV replicon 1AY93H = assay: Cell-based HCV Replicon Assay A, replicon 1AY93H
# Protocol: To measure cell-based anti-HCV activity of compounds of the present invention, two complimentary assays were employed using various replicons. In the first assay (“Replicon Assay A”), replicon cells were seeded at 2000 cells/well in 384-well 384-well flat bottom tissue culture treated clear bottom plate (Corning 3707) in the presence of the test compound. Various concentrations of test compound, typically in 10 serial dilutions, were added to the assay mixture, with the starting concentration ranging from 333.3 nM to […]. The final concentration of DMSO was 0.5%. Fetal bovine serum was 5%, in the assay media. Cells were harvested on day 3 by removing media and washing the cells with a suitable wash buffer. The cells are lysed with the addition of 1× Qiagen lysis buffer (Cat #1062731). The replicon RNA level was measured using real time PCR (TaqMan® EZ RT-PCR, Applied Biosystems 403028) with the following primers and probes: […]
# Cyclophilin RNA was used as endogenous control and was amplified in the same reaction as NS5B (multiplex PCR). The real-time RT-PCR reactions were run on ABI PRISM 7900HT Sequence Detection System using the following program: 50° C. for 2 minutes, 60° C. for 30 minutes, 95° C. for 5 minutes, 40 cycles of 94° C. for 20 sec, 55° C. for 1 minutes.
# The amount of HCV replicon RNA per cell is quantified using a linear regression curve for a known nanogram (ng) amount of HCV replicon total RNA. This is established by plotting the Cycle Threshold values (Ct) from the Neo probe and primer set versus the log (ng) for each HCV replicon total RNA standard. The amount of HCV RNA for each replicon sample is calculated by taking the sample's Ct value, minus the line intercept, divided by the slope of the line. Similarly, the amount of Cyclophilin mRNA per cell is also quantified using a linear regression curve for a known nanogram (ng) amount of HCV replicon total RNA. Again, this is established by plotting the Cycle Threshold values (Ct) from the Cyclophilin probe and primer set versus the log (ng) for each HCV replicon total RNA standard.
# Data was obtained for various compounds of the present invention using the methods described in the Example above, and is presented in the table immediately below. Data for replicons 1A, 1AY93H and 2B were obtained using Replicon Assay A and data for replicons 1AQ30D and 1B were obtained using Replicon Assay B.
# HCV replicon 1A = assay: Cell-based HCV Replicon Assay A, replicon 1A
# Outline: as §1
# [1] = Hepatitis C virus, read-out: 2B IC50 (nM), replicon 2B
# [2] = Hepatitis C virus, read-out: 1A Y93H IC50 (nM), replicon 1AY93H
# [3] = read-out: 1A Y93H IC50, replicon 1AY93H
# [4] = replicon 1AY93H, read-out: 1A Y93H IC50
Compound,IC50 (HCV replicon 2B; [1]) [nM],IC50 (HCV replicon 1AY93H; [2]) [nM],IC50 (HCV replicon 1A; Hepatitis C virus) [nM],"IC50 (HCV replicon 2B; read-out: 2B IC50, replicon 2B) [nM]",IC50 (HCV replicon 1AY93H; [3]) [nM],IC50 (HCV replicon 1A) [nM],"IC50 (HCV replicon 2B; replicon 2B, read-out: 2B IC50) [nM]",IC50 (HCV replicon 1AY93H; [4]) [nM]
"COC(=O)NC(C(=O)N1[C@@H]2C[C@@H]2C[C@H]1c1ncc(-c2ccc3c(c2)cc2n3C(c3cnc(C4CCC4)s3)Oc3cc(-c4cnc([C@@H]5CCCN5C(=O)[C@@H](NC(=O)OC)C(C)C)[nH]4)cc(C)c3-2)[nH]1)C(C)(C)F (single isomer, unassigned) [Compound 224]",0.204,0.462,0.0027,,,,,
"COC(=O)NC(C(=O)N1CCC[C@H]1c1ncc(-c2ccc3c(c2)cc2n3C(c3cnc(C4CC4)s3)Oc3cc(-c4cnc([C@@H]5CCCN5C(=O)[C@@H](NC(=O)OC)C(C)C)[nH]4)cc(F)c3-2)[nH]1)C1C[C@@H](C)O[C@@H](C)C1 (single isomer, unassigned) [Compound 306]",,,0.003,0.145,0.244,,,
"COC(=O)NC(C(=O)N1[C@@H]2C[C@@H]2C[C@H]1c1ncc(-c2ccc3c(c2)cc2n3C(c3cnc(C(C)(C)C)s3)Oc3cc(-c4cnc([C@@H]5CCCN5C(=O)[C@@H](NC(=O)OC)C(C)C)[nH]4)cc(F)c3-2)[nH]1)C(C)C (single isomer, unassigned) [Compound 323]",,,0.0032,0.078,0.0051,,,
"COC(=O)NC(C(=O)N1[C@@H]2C[C@@H]2C[C@H]1c1ncc(-c2ccc3c(c2)cc2n3C(c3cnc(C(C)(C)C)s3)Oc3cc(-c4cnc([C@@H]5CCCN5C(=O)[C@@H](NC(=O)OC)C(C)C)[nH]4)cc(F)c3-2)[nH]1)C(C)C (single isomer, unassigned) [Compound 324]",,,,1.67,0.263,0.002,,
"COC(=O)NC(C(=O)N1[C@@H]2C[C@@H]2C[C@H]1c1ncc(-c2ccc3c(c2)cc2n3C(c3cnc(C4CCCC4)s3)Oc3cc(-c4cnc([C@@H]5CCCN5C(=O)[C@@H](NC(=O)OC)C(C)C)[nH]4)cc(F)c3-2)[nH]1)C(C)(C)F (single isomer, unassigned) [Compound 327]",,,0.0012,0.011,0.002,,,
"COC(=O)NC(C(=O)N1[C@@H]2C[C@@H]2C[C@H]1c1ncc(-c2ccc3c(c2)cc2n3C(c3cnc(C4CCCC4)s3)Oc3cc(-c4cnc([C@@H]5CCCN5C(=O)[C@@H](NC(=O)OC)C(C)C)[nH]4)cc(F)c3-2)[nH]1)C(C)(C)F (single isomer, unassigned) [Compound 328]",,,,0.163,0.0463,0.0015,,
"COC(=O)N[C@H](C(=O)N1CCC[C@H]1c1ncc(-c2cc(F)c3c(c2)OC(c2nc4ccccc4s2)n2c-3cc3cc(-c4cnc([C@@H]5CCCN5C(=O)[C@@H](NC(=O)OC)C(C)C)[nH]4)ccc32)[nH]1)C(C)C (single isomer, unassigned) [Compound 401]",,0.346,0.0085,0.634,,,,
"COC(=O)N[C@H](C(=O)N1CCC[C@H]1c1ncc(-c2cc(F)c3c(c2)OC(c2cnc(-c4ccccn4)s2)n2c-3cc3cc(-c4cnc([C@@H]5CCCN5C(=O)[C@@H](NC(=O)OC)C(C)C)[nH]4)ccc32)[nH]1)C(C)C (single isomer, unassigned) [Compound 406]",0.005,0.0034,0.003,,,,,
"COC(=O)N[C@H](C(=O)N1CCC[C@H]1c1ncc(-c2cc(F)c3c(c2)OC(c2cnc(-c4ccc(C)o4)s2)n2c-3cc3cc(-c4cnc([C@@H]5CCCN5C(=O)[C@@H](NC(=O)OC)C(C)C)[nH]4)ccc32)[nH]1)C(C)C (single isomer, unassigned) [Compound 413]",,0.0196,0.0036,0.173,,,,
"COC(=O)N[C@H](C(=O)N1CCC[C@H]1c1ncc(-c2cc(F)c3c(c2)OC(c2nc(C(F)(F)F)cs2)n2c-3cc3cc(-c4cnc([C@@H]5CCCN5C(=O)[C@@H](NC(=O)OC)C(C)C)[nH]4)ccc32)[nH]1)C(C)C (single isomer, unassigned) [Compound 419]",6.47,,,,17.9,0.0041,,
"COC(=O)N[C@H](C(=O)N1CCC[C@H]1c1ncc(-c2cc(F)c3c(c2)OC(c2nc(C(F)(F)F)cs2)n2c-3cc3cc(-c4cnc([C@@H]5CCCN5C(=O)[C@@H](NC(=O)OC)C(C)C)[nH]4)ccc32)[nH]1)C(C)C (single isomer, unassigned) [Compound 420]",,,,5.56,1.87,0.0101,,
"CCC(CC)c1ncc(C2Oc3cc(-c4cnc([C@@H]5CCCN5C(=O)[C@@H](NC(=O)OC)C(C)C)[nH]4)cc(F)c3-c3cc4cc(-c5cnc([C@@H]6CCCN6C(=O)[C@@H](NC(=O)OC)C(C)C)[nH]5)ccc4n32)s1 (single isomer, unassigned) [Compound 421]",0.103,0.014,,,,0.0037,,
"COC(=O)N[C@H](C(=O)N1CCC[C@H]1c1ncc(-c2cc(F)c3c(c2)OC(c2cscn2)n2c-3cc3cc(-c4cnc([C@@H]5CCCN5C(=O)[C@@H](NC(=O)OC)C(C)C)[nH]4)ccc32)[nH]1)C(C)C (single isomer, unassigned) [Compound 430]",,,,7.1,19.5,0.006,,
"COC(=O)N[C@H](C(=O)N1CCC[C@H]1c1ncc(-c2cc(F)c3c(c2)OC(c2cscn2)n2c-3cc3cc(-c4cnc([C@@H]5CCCN5C(=O)[C@@H](NC(=O)OC)C(C)C)[nH]4)ccc32)[nH]1)C(C)C (single isomer, unassigned) [Compound 431]",,,,3.1,0.56,0.033,,
"COC(=O)NC(C(=O)N1[C@@H]2C[C@@H]2C[C@H]1c1ncc(-c2ccc3c(c2)cc2n3C(c3cnc(CC(C)C)s3)Oc3cc(-c4cnc([C@@H]5CCCN5C(=O)[C@@H](NC(=O)OC)C(C)C)[nH]4)cc(F)c3-2)[nH]1)C1CCOC(C)(C)C1 (single isomer, unassigned) [Compound 436]",,,,,,0.0011,0.318,0.126
"CCCc1ncc(C2Oc3cc(-c4cnc([C@@H]5CCCN5C(=O)[C@@H](NC(=O)OC)C(C)C)[nH]4)cc(C)c3-c3cc4cc(-c5cnc([C@@H]6CCCN6C(=O)C(NC(=O)OC)C(C)(C)F)[nH]5)ccc4n32)s1 (single isomer, unassigned) [Compound 486]",0.031,0.342,0.0041,,,,,
"COC(=O)N[C@H](C(=O)N1CCC[C@H]1c1ncc(-c2cc(F)c3c(c2)OC(c2nc4c(s2)CCC4)n2c-3cc3cc(-c4cnc([C@@H]5CCCN5C(=O)[C@@H](NC(=O)OC)C(C)C)[nH]4)ccc32)[nH]1)C(C)C (single isomer, unassigned) [Compound 505]",,,,0.22,0.152,0.0015,,
"COC(=O)N[C@H](C(=O)N1CCC[C@H]1c1ncc(-c2cc(F)c3c(c2)OC(c2cnc(CC4CC4)s2)n2c-3cc3cc(-c4cnc([C@@H]5CCCN5C(=O)[C@@H](NC(=O)OC)C(C)C)[nH]4)ccc32)[nH]1)C(C)C (single isomer, unassigned) [Compound 510]",,,,,,0.001,0.624,0.629
"COC(=O)N[C@H](C(=O)N1CCC[C@H]1c1ncc(-c2cc(F)c3c(c2)OC(c2cnc(C4CCCCC4)s2)n2c-3cc3cc(-c4cnc([C@@H]5CCCN5C(=O)[C@@H](NC(=O)OC)C(C)C)[nH]4)ccc32)[nH]1)C(C)C (single isomer, unassigned) [Compound 528]",,,,0.727,1.15,0.0014,,
"COC(=O)NC(C(=O)N1CCC[C@H]1c1ncc(-c2ccc3c(c2)cc2n3C(c3nc4c(s3)CCC4)Oc3cc(-c4cnc([C@@H]5CCCN5C(=O)[C@@H](NC(=O)OC)C(C)C)[nH]4)cc(F)c3-2)[nH]1)C1CCOC(C)(C)C1 (single isomer, unassigned) [Compound 537]",0.198,3.33,0.0019,,,,,
"COC(=O)NC(C(=O)N1CCC[C@H]1c1ncc(-c2ccc3c(c2)cc2n3C(c3cnc(CC4CC4)s3)Oc3cc(-c4cnc([C@@H]5CCCN5C(=O)[C@@H](NC(=O)OC)C(C)C)[nH]4)cc(F)c3-2)[nH]1)C1CCOC(C)(C)C1 (single isomer, unassigned) [Compound 538]",,,,,,0.0012,0.117,0.579
"COC(=O)NC(C(=O)N1CCC[C@H]1c1ncc(-c2ccc3c(c2)cc2n3C(c3cnc(CC(C)C)s3)Oc3cc(-c4cnc([C@@H]5CCCN5C(=O)[C@@H](NC(=O)OC)C(C)C)[nH]4)cc(F)c3-2)[nH]1)C1CCOC(C)(C)C1 (single isomer, unassigned) [Compound 542]",,,,0.124,0.495,0.0014,,
